Where “and” joins values, the source holds several entries; their conditions need not be identical. Equal values may be shown once.
Legend:
[1] = mice; 2 mg/ml in drinking water; cited from earlier work
human ATB^0,+ [2] = target: T1, human ATB^0,+ (Homo sapiens, UniProt Q9UN76); experiment: L-tryptophan-induced inward currents in X. laevis oocytes expressing human ATB^0,+; assay type: cell-based; settings: 1 mM added simultaneously with 20 μM L-tryptophan
T1 construct: The human ATB^0,+ cDNA was cloned from an MCF7 cell (a human mammary epithelial cancer cell line) cDNA library; expressed in transfected cells; host or cells: Xenopus laevis oocytes injected with 50 ng capped cRNA
T1 sequence (Q9UN76 1-642): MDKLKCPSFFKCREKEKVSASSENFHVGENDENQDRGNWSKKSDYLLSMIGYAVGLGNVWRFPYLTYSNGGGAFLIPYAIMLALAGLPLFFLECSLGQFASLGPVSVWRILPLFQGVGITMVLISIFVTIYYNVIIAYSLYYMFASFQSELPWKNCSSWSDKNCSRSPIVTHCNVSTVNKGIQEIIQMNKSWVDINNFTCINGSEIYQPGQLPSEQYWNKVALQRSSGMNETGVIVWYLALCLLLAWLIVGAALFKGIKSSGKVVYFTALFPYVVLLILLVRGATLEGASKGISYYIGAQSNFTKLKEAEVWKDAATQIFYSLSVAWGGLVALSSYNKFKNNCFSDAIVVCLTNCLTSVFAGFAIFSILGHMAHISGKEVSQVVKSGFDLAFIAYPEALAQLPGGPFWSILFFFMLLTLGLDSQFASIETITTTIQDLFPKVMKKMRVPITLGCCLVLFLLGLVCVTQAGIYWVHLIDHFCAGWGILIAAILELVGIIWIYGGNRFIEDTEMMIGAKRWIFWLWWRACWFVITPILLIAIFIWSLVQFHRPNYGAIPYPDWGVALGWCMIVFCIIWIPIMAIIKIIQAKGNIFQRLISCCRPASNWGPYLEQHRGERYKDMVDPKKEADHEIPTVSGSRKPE
Procedure: Capped cRNA from the cloned mouse or human ATB^0,+ cDNA was synthesized using the mMESSAGE mMACHTNE kit (Ambion, Austin, Tex., U.S.A.). Mature oocytes (stage IV or V) from X. laevis were injected with 50 ng of cRNA. Uninjected oocytes served as controls. The oocytes were used for electrophysiological studies 3-6 days after cRNA injection. Electrophysiological studies were performed by the two-microelectrode voltage-clamp method (Nakanishi et al., 2001, J. Physiol. 532, 297-304). Oocytes were superfused with an NaCl-containing buffer (100 mM NaCl, 2 mM KCl, 1 mM MgCl2, 1 mM CaCl2, 3 mM Hepes, 3 mM Mes and 3 mM Tris, pH 7.5), followed by the same buffer containing tryptophan derivatives. The membrane potential was clamped at −50 mV. The differences between the steady-state currents measured in the presence and absence of substrates were considered as the substrate-induced currents. In the analysis of the saturation kinetics of substrate-induced currents, the kinetic parameter K0.5 (i.e. substrate concentration necessary for induction of half-maximal current) was calculated by fitting the values of the substrate-induced currents to the Michaelis-Menten equation. The Na^+ and Cl^− activation kinetics of substrate-induced currents were analysed by measuring the substrate-specific currents in the presence of increasing concentrations of Na^+ (concentration of Cl^− kept constant at 100 mM) or in the presence of increasing concentrations of Cl^− (concentration of Na^+ kept constant at 100 mM). In these experiments, the composition of the superfusion buffer was modified to contain 2 mM potassium gluconate, 1 mM MgSO4 and 1 mM calcium gluconate in place of KCl, MgCl2 and CaCl2 respectively. The data from these experiments were analysed by the Hill equation to determine the Hill coefficient (h; number of Na^+ and Cl^− ions involved in the activation process). The kinetic parameters were determined by using the commercially available computer program Sigma Plot, version 6.0 (SPSS, Chicago, Ill., U.S.A.). […]

human ATB^0,+ [3] = target: T1, human ATB^0,+; experiment: Block of inward currents induced by amino acid mixture simulating plasma in X. laevis oocytes expressing human ATB^0,+; assay type: cell-based
Procedure: Capped cRNA from the cloned mouse or human ATB^0,+ cDNA was synthesized using the mMESSAGE mMACHTNE kit (Ambion, Austin, Tex., U.S.A.). Mature oocytes (stage IV or V) from X. laevis were injected with 50 ng of cRNA. Uninjected oocytes served as controls. The oocytes were used for electrophysiological studies 3-6 days after cRNA injection. Electrophysiological studies were performed by the two-microelectrode voltage-clamp method (Nakanishi et al., 2001, J. Physiol. 532, 297-304). Oocytes were superfused with an NaCl-containing buffer (100 mM NaCl, 2 mM KCl, 1 mM MgCl2, 1 mM CaCl2, 3 mM Hepes, 3 mM Mes and 3 mM Tris, pH 7.5), followed by the same buffer containing tryptophan derivatives. The membrane potential was clamped at −50 mV. The differences between the steady-state currents measured in the presence and absence of substrates were considered as the substrate-induced currents. In the analysis of the saturation kinetics of substrate-induced currents, the kinetic parameter K0.5 (i.e. substrate concentration necessary for induction of half-maximal current) was calculated by fitting the values of the substrate-induced currents to the Michaelis-Menten equation. The Na^+ and Cl^− activation kinetics of substrate-induced currents were analysed by measuring the substrate-specific currents in the presence of increasing concentrations of Na^+ (concentration of Cl^− kept constant at 100 mM) or in the presence of increasing concentrations of Cl^− (concentration of Na^+ kept constant at 100 mM). In these experiments, the composition of the superfusion buffer was modified to contain 2 mM potassium gluconate, 1 mM MgSO4 and 1 mM calcium gluconate in place of KCl, MgCl2 and CaCl2 respectively. The data from these experiments were analysed by the Hill equation to determine the Hill coefficient (h; number of Na^+ and Cl^− ions involved in the activation process). The kinetic parameters were determined by using the commercially available computer program Sigma Plot, version 6.0 (SPSS, Chicago, Ill., U.S.A.). Uninjected oocytes were used to determine the currents induced by tryptophan derivatives due to entry via transporters that may be constitutively expressed in the oocytes. At a concentration of 2.5 mM, the currents induced by these compounds were in the range of 0-3 nA in uninjected oocytes. These currents were less than 2% of the corresponding currents induced in ATB^0,+ cRNA-injected oocytes. Therefore the endogenous currents associated with the constitutively expressed transporters were not considered in the analysis of kinetic parameters of ATB^0,+ transport activity.
These studies with α-methyl-DL-tryptophan as a blocker of ATB^0,+ were carried out with L-tryptophan at sub-saturating concentrations. […] Therefore, using the Xenopus oocyte heterologous expression system, we monitored the transport activity of human ATB^0,+ in the presence of an amino acid mixture consisting of 18 different amino acids, each at its respective physiological concentration found in plasma (Glew et al., 2004, Clin. Chim. Acta 342, 179-185) (Table 1). Inward currents were detected under these conditions in oocytes expressing human ATB^0,+. […] We then monitored the ability of α-methyl-DL-tryptophan to block the inward currents induced by the same mixture of amino acids in oocytes expressing human ATB^0,+ (FIG. 4B). […]

In the case of Cn1cc(C[C@@H](N)C(=O)O)c2ccccc21 [1-methyl-D-tryptophan], the plasma levels [1] is listed as 35 to 40 µM.
For Cn1cc(CC(N)C(=O)O)c2ccccc21 (racemic) [1-methyl-DL-tryptophan], the “effect on inward currents induced by 20 μM L-tryptophan” value (human ATB^0,+ [2]) was “greater than that with 20 μM L-tryptophan alone”.
In the case of CC(N)(Cc1c[nH]c2ccccc12)C(=O)O (racemic) [α-methyl-DL-tryptophan], the “effect on inward currents induced by 20 μM L-tryptophan” value (human ATB^0,+ [2]) is reported as “blocked completely”, the inhibition at 2500 µM (human ATB^0,+ [3]; 2.5 mM, 18 amino acids at plasma concentrations, read-out: maximal inhibition of amino acid mixture-induced currents) is reported as ~85% and the IC50 (human ATB^0,+ [3]; 18 amino acids at normal plasma concentrations, read-out: concentration necessary to elicit 50% of maximal inhibition (IC50) of amino acid mixture-induced currents) is reported as ~250 µM and 255 µM.

— patent publication US8436039B2, “Inhibitors of the ATB(0,+) transporter and uses thereof” (Georgia Health Sciences University Research Institute, Inc., priority 2008, dated 2013)
